The values below come from patent US7615643B2 (SmithKline Beecham Corporation, priority 2006, dated 2009).

Molecules are shown by their SMILES.

For the test, the target named is T1, PLK1 (Homo sapiens, UniProt P53350).
T1 construct: PLK kinase domain (amino acids 21-346 preceded by MKKGHHHHHHD); made in house; host or cells: baculovirus infected T. ni cells
T1 sequence (P53350 21-346): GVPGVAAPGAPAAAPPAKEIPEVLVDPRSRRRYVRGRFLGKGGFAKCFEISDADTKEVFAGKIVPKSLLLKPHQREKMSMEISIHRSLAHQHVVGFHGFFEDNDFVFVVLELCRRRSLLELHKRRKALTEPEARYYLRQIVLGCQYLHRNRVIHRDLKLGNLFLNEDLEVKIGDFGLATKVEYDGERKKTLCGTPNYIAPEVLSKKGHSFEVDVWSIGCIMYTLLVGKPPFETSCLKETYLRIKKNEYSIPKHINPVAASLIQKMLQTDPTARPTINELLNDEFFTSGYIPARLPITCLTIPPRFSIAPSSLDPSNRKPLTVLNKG
Description: Assay for inhibition of PLK1 (SPA kinase assay). The conditions noted are these: 1 μM ATP, 2 nM PLK1 kinase domain, read-out: PLK1 pIC50 (converted). It counts as biochemical. The protocol:
I. Assay for Inhibition of PLK1
A. Preparation of 6× N-terminal His-tagged PLK Kinase Domain
6× N-terminal His-tagged PLK kinase domain (amino acids 21-346 preceded by MKKGHHHHHHD) SEQ ID: No. 1. was prepared from baculovirus infected T. ni cells under polyhedrin promoter control. All procedures were performed at 4° C. Cells were lysed In 50 mM HEPES, 200 mM NaCl, 50 mM imidazole, 5% glycerol; pH 7.5. The homogenate was centrifuged at 14K rpm in a SLA-1500 rotor for 1 hr and the supernatant filtered through a 1.2 micron filter. The supernatant was loaded onto a Nickel chelating Sepharose (Amersham Pharmacia) column and washed with lysis buffer. Protein was eluted using 20%, 30% and 100% buffer B steps where buffer B was 50 mM HEPES, 200 mM NaCl, 300 mM imidazole, 5% glycerol; pH 7.5. Fractions containing PLK were determined by SDS-PAGE. Fractions containing PLK were diluted five-fold with 50 mM HEPES, 1 mM DTT, 5% glycerol; pH 7.5, then loaded on an SP Sepharose (Amersham Pharmacia) column. After washing the column with 50 mM HEPES, 1 mM DTT, 5% glycerol; pH 7.5, PLK was step eluted with 50 mM HEPES, 1 mM DTT, 500 mM NaCl; 5% glycerol; pH 7.5. PLK was concentrated using a 10 kDa molecular weight cutoff membrane and then loaded onto a Superdex 200 gel filtration (Amersham Pharmacia) column equilibrated in 25 mM HEPES, 1 mM DTT, 500 mM NaCl, 5% glycerol; pH 7.5. Fractions containing PLK were determined by SDS-PAGE. PLK was pooled, aliquoted and stored at −80° C. Samples were quality controlled using mass spectrometry, N-terminal sequencing and amino acid analysis.
B. Enzyme Activity +/− Inhibitors was Determined as Follows:
All measurements were obtained under conditions where signal production increased linearly with time and enzyme. Test compounds were added to white 384-well assay plates (0.1 μL for 10 μL and some 20 μL assays, 1 μL for some 20 μL assays) at variable known concentrations in 100% DMSO. DMSO (1-5% final, as appropriate) and EDTA (65 mM in reaction) were used as controls. Reaction Mix was prepared as follows at 22° C.: • 25 mM HEPES, pH 7.2 • 15 mM MgCl2 • 1 μM ATP • 0.05 μCi/well ^33P-γ ATP (10 Ci/mMol) • 1 μM substrate peptide (Biotin-Ahx-SFNDTLDFD) SEQ ID:No. 2. • 0.15 mg/mL BSA • 1 mM DTT • 2 nM PLK1 kinase domain (added last)
Reaction Mix (10 or 20 μL) was quickly added to each well immediately following addition of enzyme via automated liquid handlers and incubated 1-1.5 h at 22° C. The 20 μL enzymatic reactions were stopped with 50 μL of stop mix (50 mM EDTA, 4.0 mg/mL Streptavidin SPA beads in Standard Dulbecco's PBS (without Mg^2+ and Ca^2+), 50 μM ATP) per well. The 10 μL reactions were stopped with 10 μL of stop mix (50 mM EDTA, 3.0 mg/mL Streptavidin-coupled SPA imaging Beads (“LeadSeeker”) in Standard Dulbecco's PBS (without Mg^2+ and Ca^2+), 50 μM ATP) per well. Plates were sealed with clear plastic seals, spun at 500×g for 1 min or settled overnight, and counted in Packard TopCount for 30 seconds/well (regular SPA) or imaged using a Viewlux imager (LeadSeeker SPA). Signal above background (EDTA controls) was converted to percent Inhibition relative to that obtained in control (DMSO-only) wells.
In the case of `C[C@@H](Oc1cc(-n2cnc3ccccc32)sc1C(N)=O)c1cccc(OCCN2CCNCC2)c1Cl` [Example 16, 5-(1H-benzimidazol-1-yl)-3-{[(1R)-1-(2-chloro-3-{[2-(1-piperazinyl)ethyl]oxy}phenyl)ethyl]oxy}-2-thiophenecarboxamide], the IC50 was less than 100 nM.

Turning to `COc1cc2ncn(-c3cc(O[C@H](C)c4cccc(OCC5CCNCC5)c4Cl)c(C(N)=O)s3)c2cc1OC` [Example 40, 5-[5.6-Bis(methyloxy)-1H-benzimidazol-1-yl]-3-[((1R)-1-{2-chloro-3-[(4-piperidinylmethyl)oxy]phenyl}ethyl)oxy]-2-thiophenecarboxamide], the IC50 was less than 100 nM.

Regarding `C[C@@H](Oc1cc(-n2cnc3cc(-c4cnn(C)c4)ccc32)sc1C(N)=O)c1c(F)ccc(OC2CCN(C)CC2)c1Cl` [Example 38, 3-[((1R)-1-{2-Chloro-6-fluoro-3-[(1-methyl-4-piperidinyl)oxy]phenyl}ethyl)oxy]-5-[5-(1-methyl-1H-pyrazol-4-yl)-1H-benzimidazol-1-yl]-2-thiophenecarboxamide], the IC50 is less than 100 nM.

For the molecule `C[C@@H](Oc1cc(-n2cnc3cc(-c4cnn(C)c4)ccc32)sc1C(N)=O)c1cccc(OC2CCN(CCC(F)(F)F)CC2)c1Cl` [Example 30, 3-{[(1R)-1-(2-chloro-3-{[1-(3,3,3-trifluoropropyl)-4-piperidinyl]oxy}phenyl)ethyl]oxy}-5-[5-(1-methyl-1H-pyrazol-4-yl)-1H-benzimidazol-1-yl]-2-thiopenecarboxamide], the IC50 is less than 100 nM.

In the case of `C[C@@H](Oc1cc(-n2cnc3cc(-c4cnn(C)c4)ccc32)sc1C(N)=O)c1cccc(OCC2CCN(C(=O)OC(C)(C)C)CC2)c1Cl` [Example 43, 1,1-Dimethylethyl 4-[({3-[(1R)-1-({2-(aminocarbonyl)-5-[5-(1-methyl-1H-pyrazol-4-yl)-1H-benzimidazol-1-yl]-3-thienyl}oxy)ethyl]-2-chlorophenyl}oxy)methyl]-1-piperidinecarboxylate], the IC50 is 100 to 1000 nM.

On to `C[C@@H](Oc1cc(-n2cnc3cc(F)c(Cl)cc32)sc1C(N)=O)c1cccc(OC2CCNCC2)c1Cl` [Example 69, 5-(6-Chloro-5-fluoro-1H-benzimidazol-1-yl)-3-({(1R)-1-[2-chloro-3-(4-piperidinyloxy)phenyl]ethyl}oxy)-2-thiophenecarboxamide], for which the IC50 is less than 100 nM.

As for `COc1cc2ncn(-c3cc(O[C@H](C)c4cccc(OCC5CCN(C)CC5)c4Cl)c(C(N)=O)s3)c2cc1OC` [Example 41, 5-[5,6-Bis(methyloxy)-1H-benzimidazol-1-yl]-3-{[(1R)-1-(2-chloro-3-{[(1-methyl-4-piperidinyl)methyl]oxy}phenyl)ethyl]oxy}-2-thiophenecarboxamide], the IC50 was less than 100 nM.

Take `C[C@@H](Oc1cc(-n2cnc3ccc(CS(C)(=O)=O)cc32)sc1C(N)=O)c1cccc(OCC2CCNCC2)c1Cl` [Example 56, 3-[((1R)-1-{2-chloro-3-[(4-piperidinylmethyl)oxy]phenyl}ethyl)oxy]-5-{6-[(methylsulfonyl)methyl]-1H-benzimidazol-1-yl}-2-thiophenecarboxamide]: the IC50 is less than 100 nM.

As for `C[C@@H](Oc1cc(-n2cnc3cc(Cl)ccc32)sc1C(N)=O)c1cccc(OC2CCN(CCS(C)(=O)=O)CC2)c1Cl` [Example 23, 5-(5-Chloro-1H-benzimidazol-1-yl)-3-({(1R)-1-[2-chloro-3-({1-[2-(methylsulfonyl)ethyl]-4-piperidinyl}oxy)phenyl]ethyl}oxy)-2-thiophenecarboxamide], the IC50 was less than 100 nM.

As to `C[C@@H](Oc1cc(-n2cnc3cc(-c4cnn(C)c4)ccc32)sc1C(N)=O)c1cccc(OCC2CCN(C)CC2)c1Cl` [Example 45, 3-{[(1R)-1-(2-Chloro--3-{[(1-methyl-4-piperidinyl)methyl]oxy}phenyl)ethyl]oxy}-5-[5-(1-methyl-1H-pyrazol-4-yl)-1H-benzimidazol-1-yl]-2-thiopnenecarboxamide], the IC50 was less than 100 nM.
